Assay [1] is described as follows: DPPH radical-scavenging activity assay. The assay is classed as biochemical. The conditions noted are these: test concentration not given. The procedure:
With respect to each sample, 1,1-diphenyl-2-picrylhydrazyl (DPPH) radical-scavenging activity was evaluated as follows. In a 96-hole microplate, 100 μL of DPPH solution (60 μM ethanol solution) was placed. Added thereto was 100 μL of ethanol solution of test sample or 100 μL of ethanol as control, and the mixture was gently mixed together and left standing at room temperature for 30 minutes. Then, absorbance at 520 nm was measured. The DPPH radical-scavenging activity was calculated by the following formula and 50% effective concentration (EC50) was calculated from The DPPH radical-scavenging activity value of test sample gradually diluted and its concentration. DPPH radical-scavenging activity(%)=[…] [Formula 1]
As substance to be compared with Invention Substance B, epicatechin and phloroglucinol (PL) were used. As substance to be compared with Invention Substances C to E, grape seed polyphenol polymer (GP) was used.
Background: Loss of DPPH colour is used to gauge radical scavenging.

The nature of assay [2]: TEAC (Trolox Equivalent Antioxidant Capacity) method. The assay is classed as biochemical. The procedure: TEAC (Trolox Equivalent Antioxidant Capacity) method is a method of relatively evaluating antioxidative strength by converting antioxidative activity of a compound into antioxidative activity of Trolox which is a α-tocopherol derivative and the method is widely employed as an index of antioxidative activity.
To 36 μL of 70 μM metmyoglobin solution, 300 μL of ABTS solution and […] of 5 mM phosphate buffered saline were added. Subsequently, sample solution or 1.25 mM Yrolox solution was added thereto and gently mixed together for 5 minutes at 0° C. After 167 μL of 450 μM hydrogen peroxide solution was added thereto and mixed for 10 seconds, reaction was allowed to proceed for 5 minutes at room temperature. Absorbance at 734 nm was measured and the absorbance ratio between the sample and the Trolox solution was calculated to serve as TEAC value of the sample against […] Trolox.
As substance to be compared with Invention Substances C to E, grape seed polyphenol polymer was used.

Setting [3] is: FIG. 8, comparison for Invention Substance B.
The mark [4] stands for this setting: FIG. 11, TEAC value against Trolox.

In assay [1] (FIG. 7, comparison for Invention Substance A), `Oc1ccc(/C=C/c2cc(O)c([C@H]3c4c(O)cc(O)cc4O[C@H](c4ccc(O)c(O)c4)[C@@H]3O)c(O)c2)cc1` [Invention Substance A, 4b-(4-resveratroyl)-(−)-epicatechin] had a DPPH activity of 76.1%. Also, the TEAC activity in assay [2] (FIG. 10, TEAC value against 1.00 mM Trolox) is on record as 1.33 mM.
As to `Oc1cc(O)c([C@H]2c3c(O)cc(O)cc3O[C@H](c3ccc(O)c(O)c3)[C@@H]2O)c(O)c1` [Invention Substance B, 4-(2-phloroglucinol)-(−)-epicatechin], the DPPH activity entry in assay [1] (setting [3]) is “significantly high scavenging activity as compared with both of the substances”. The TEAC activity in assay [2] (setting [4]) is 1.44 mM.
For `Oc1cc(O)cc(O)c1` [phloroglucinol, reference compound] the same measures were “little such activity” and 0.52 mM.

These data come from patent publication US10183007B2, “Method of producing proanthocyanidin oligomer” (Nagasaki University, priority 2005, dated 2019).
